Like-named read-outs stand apart in the source and are kept apart here. Values belong to the compound of their own block, whether it stands above or below them.
Tests used:
[1] = biological target: T1, human 11-beta HSD1 (Homo sapiens, UniProt P28845); assay: 11 beta-HSD1 enzyme assay (HTRF cortisol), human recombinant enzyme; assay type: biochemical; conditions: read-out: Inhibition of human 11-beta HSD1 IC50
T1 construct: made in house; host or cells: E. coli
Description: (§1) Human recombinant 11 beta-hydroxysteroid dehydrogenase type 1 (11 beta-HSD1) and type 2 (11 beta-HSD2) enzymes were expressed in E. coli. Rat and mice liver microsome fractions were purchased from TEBU.
(§2) The 11 beta-HSD1 enzyme assay was carried out in 96 well microtiter plates in a total volume of 100 μl containing 30 mM HEPES buffer, pH 7,4 with 1 mM EDTA, substrate mixture cortisone/NADPH (200 nM/200 μM), G-6-P (1 mM) and inhibitors in serial dilutions. Reactions were initiated by addition of 10 μl 11beta-HSD1 (3 μg) from E. coli, either as microsome fractions from rat or mice liver (2.5 μg). Following mixing, the plates were shaken for 150 minutes at 37° C. The reactions were terminated with 100 Acid-18beta glycyrrhetinic stop solution. Determinations of cortisol levels in 11 beta-HSD1 preparations were monitored by HTRF (HTRF cortisol assay from C is bio international).

[2] = biological target: T2, human 11-beta HSD2 (Homo sapiens, UniProt P80365); assay: 11 beta-HSD2 enzyme assay, human recombinant enzyme; assay type: biochemical; conditions: selectivity table, Example 10; read-out: Inhibition of human 11-beta HSD2 IC50
T2 construct: made in house; host or cells: E. coli
T2 sequence (P80365 1-405): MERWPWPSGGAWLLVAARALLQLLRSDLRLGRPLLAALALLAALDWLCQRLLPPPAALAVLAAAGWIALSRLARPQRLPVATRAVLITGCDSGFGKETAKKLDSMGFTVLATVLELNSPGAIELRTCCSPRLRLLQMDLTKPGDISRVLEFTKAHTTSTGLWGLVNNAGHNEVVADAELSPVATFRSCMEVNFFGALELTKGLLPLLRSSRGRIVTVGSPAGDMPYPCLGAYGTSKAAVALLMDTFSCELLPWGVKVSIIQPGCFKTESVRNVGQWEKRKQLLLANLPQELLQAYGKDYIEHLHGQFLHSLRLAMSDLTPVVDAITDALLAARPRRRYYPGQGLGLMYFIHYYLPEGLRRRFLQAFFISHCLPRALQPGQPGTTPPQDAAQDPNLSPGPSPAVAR
Description: This assay was similarly applied to 11beta-HSD2, whereby cortisol, NAD, and carbenoxolon were used as the substrate, cofactor and stopping agent, respectively.

[3] = biological target: rat 11-beta HSD1 (Rattus norvegicus, UniProt P16232); assay: 11 beta-HSD1 enzyme assay, rat liver microsome fractions; assay type: biochemical; conditions: read-out: Inhibition of rat 11-beta HSD1 IC50
Description: as §1, §2

[4] = biological target: mouse 11-beta HSD1 (Mus musculus, UniProt P50172); assay: 11 beta-HSD1 enzyme assay, mice liver microsome fractions
Description: as §1, §2

[5] = recombinant enzyme from E. coli

T1 sequence (P28845 whole entry): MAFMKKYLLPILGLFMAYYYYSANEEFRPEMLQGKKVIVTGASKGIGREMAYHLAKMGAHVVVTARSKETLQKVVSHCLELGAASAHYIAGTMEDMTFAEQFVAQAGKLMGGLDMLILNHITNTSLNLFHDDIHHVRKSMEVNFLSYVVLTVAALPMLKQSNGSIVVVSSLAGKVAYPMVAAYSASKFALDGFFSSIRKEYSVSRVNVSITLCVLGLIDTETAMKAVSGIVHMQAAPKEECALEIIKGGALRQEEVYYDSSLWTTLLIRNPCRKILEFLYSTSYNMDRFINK
Sequence of mouse 11-beta HSD1 (P50172 whole entry): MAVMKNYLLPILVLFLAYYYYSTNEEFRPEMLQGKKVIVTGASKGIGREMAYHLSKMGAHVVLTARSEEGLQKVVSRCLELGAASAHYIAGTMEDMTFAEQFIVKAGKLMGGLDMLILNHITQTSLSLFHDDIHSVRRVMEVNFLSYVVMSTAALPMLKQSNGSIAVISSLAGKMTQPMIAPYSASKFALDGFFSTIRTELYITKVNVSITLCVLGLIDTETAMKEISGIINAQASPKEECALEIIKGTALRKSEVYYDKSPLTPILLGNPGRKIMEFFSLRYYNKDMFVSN
Sequence of rat 11-beta HSD1 (P16232 whole entry): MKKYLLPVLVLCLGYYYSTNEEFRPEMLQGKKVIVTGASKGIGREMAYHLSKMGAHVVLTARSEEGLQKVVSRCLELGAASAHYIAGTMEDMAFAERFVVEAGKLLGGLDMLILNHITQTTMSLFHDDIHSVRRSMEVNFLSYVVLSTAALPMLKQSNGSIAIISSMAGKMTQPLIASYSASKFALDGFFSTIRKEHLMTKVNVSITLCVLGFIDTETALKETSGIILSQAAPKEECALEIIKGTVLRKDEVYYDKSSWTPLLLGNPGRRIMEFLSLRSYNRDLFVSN

IC50 [1, 5]: 340 nM
SMILES: O=C(Nc1ccccc1C(F)(F)F)NC1C2CC3CC(C2)CC1C3 (centres unmarked) [Ex 1-3, 1-Adamantan-2-yl-3-(2-trifluoromethyl-phenyl)-urea]

IC50 ([1]; selectivity table, Example 10): 12 nM
IC50 [2]: > 10000 nM
SMILES: COc1ccc(NC(=O)NC2C3CC4CC(C3)CC2C4)c(C)c1 (centres unmarked) [drawing 13]

IC50 [1, 5]: 57 nM
SMILES: O=C(Nc1ccc2ccccc2c1)NC1C2CC3CC(C2)CC1C3 (centres unmarked) [Ex 1-23, 1-Adamantan-2-yl-3-naphthalen-2-yl-urea]

IC50 [1, 5]: 430 nM
IC50 [3]: 8 nM
IC50 [4]: 440 nM
SMILES: O=C(NCCc1ccccc1)NC1C2CC3CC(C2)CC1C3 (centres unmarked) [Ex 1-12, 1-Adamantan-2-yl-3-phenethyl-urea]

IC50 ([1]; selectivity table, Example 10): 370 nM
IC50 [2]: > 10000 nM
SMILES: O=C(NC1CCCC1)NC1C2CC3CC(C2)CC1C3 (centres unmarked) [drawing 14]

IC50 [1, 5]: 270 nM
SMILES: COc1cc(NC(=O)NC2C3CC4CC(C3)CC2C4)cc(OC)c1 (centres unmarked) [Ex 1-7, 1-Adamantan-2-yl-3-(3,5-dimethoxy-phenyl)-urea]

IC50 [1, 5]: 16 nM
SMILES: C[C@@H](NC(=O)NC1C2CC3CC(C2)CC1C3)c1ccccc1 (stereo partly drawn) [Ex 1-61, 1-Adamantan-2-yl-3-((R)-1-phenyl-ethyl)-urea]

IC50 [1, 5]: 2100 nM
IC50 [4]: 3440 nM
SMILES: O=C(NCc1ccco1)NC1C2CC3CC(C2)CC1C3 (centres unmarked) [Ex 1-44, 1-Adamantan-2-yl-3-furan-2-ylmethyl-urea]

IC50 [1, 5]: 740 nM
SMILES: Cc1cccc(CNC(=O)NC2C3CC4CC(C3)CC2C4)c1 (centres unmarked) [Ex 1-34, 1-Adamantan-2-yl-3-(3-methyl-benzyl)-urea]

melting point: 212 to 214 °C
SMILES: Cc1cc(O)ccc1NC(=O)NC1C2CC3CC(C2)CC1C3 (centres unmarked) [Ex 7, 1-Adamantan-2-yl-3-(4-hydroxy-2-methyl-phenyl)-urea]

IC50 [1, 5]: 550 nM
SMILES: Cc1c(NC(=O)NC2C3CC4CC(C3)CC2C4)cccc1C(=O)O (centres unmarked) [Ex 6, 3-(3-Adamantan-2-yl-ureido)-2-methyl-benzoic acid]

IC50 [1, 5]: 720 nM
IC50 [3]: 1320 nM
SMILES: O=C(NC1C2CC3CC(C2)CC1C3)N1CCCC1 (centres unmarked) [Ex 3-3, Pyrrolidine-1-carboxylic acid adamantan-2-ylamide]

IC50 [1, 5]: 67 nM
SMILES: CCc1cccc(NC(=O)NC2C3CC4CC(C3)CC2C4)c1 (centres unmarked) [Ex 1-20, 1-Adamantan-2-yl-3-(3-ethyl-phenyl)-urea]

IC50 [1, 5]: 370 nM
IC50 [3]: 47 nM
IC50 [4]: 355 nM
SMILES: O=C(NC1CCCC1)NC1C2CC3CC(C2)CC1C3 (centres unmarked) [Ex 1-39, 1-Adamantan-2-yl-3-cyclopentyl-urea]

IC50 [1, 5]: 15 nM
IC50 [3]: 190 nM
melting point: 186 °C
IC50 [4]: 97 nM
SMILES: COc1ccc(NC(=O)NC2C3CC4CC(C3)CC2C4)c(C)c1 (centres unmarked) [Ex 1, 1-Adamantan-2-yl-3-(4-methoxy-2-methyl-phenyl)-urea]

IC50 [1, 5]: 43 nM
SMILES: O=C(NCCc1cccs1)NC1C2CC3CC(C2)CC1C3 (centres unmarked) [Ex 1-16, 1-Adamantan-2-yl-3-(2-thiophen-2-yl-ethyl)-urea]

IC50 ([1]; selectivity table, Example 10): 16 nM
IC50 [2]: > 10000 nM
SMILES: C[C@@H](NC(=O)NC1C2CC3CC(C2)CC1C3)c1ccccc1 (some centres unmarked) [drawing 15]

IC50 [1, 5]: 670 nM
SMILES: O=C(Nc1cc(Cl)nc(Cl)c1)NC1C2CC3CC(C2)CC1C3 (centres unmarked) [Ex 1-26, 1-Adamantan-2-yl-3-(2,6-dichloro-pyridin-4-yl)-urea]

IC50 [3]: 1460 nM
IC50 ([4]; read-out: Inhibition of mouse 11-beta HSD1 IC50, mice liver microsome fractions): 1240 nM
SMILES: Cc1cc(OCCN2CCCCC2)ccc1NC(=O)NC1C2CC3CC(C2)CC1C3 (centres unmarked) [Ex 8, 1-Adamantan-2-yl-3-(2-methyl-4-(2-piperidin-1-yl-ethoxyl)phenyl)-urea]
